Publication PMC11189555, “Aryl amino acetamides prevent Plasmodium falciparum ring development via targeting the lipid-transfer protein PfSTART1” (Nature Communications, 2024)
Several values for one entry are separate records, joined by “and”; a condition that tells them apart may be missing. Equal entries are not always repeated. Where two headings read alike, the source gives them in different places.

Experiments:
CR-N309K parasites = experiment: Growth inhibition assay (72 h, LDH activity); assay type: cell-based, Plasmodium falciparum
Experimental: (§1) Parasite growth assays with inhibitory compounds were performed as per[11] and are fully described in the Supplementary Information.
(§2) Molecular biology and transfection of P. falciparum: CRISPR method.
(§3) The full 5’ homology region of pfstart1 (either WT, N309K or N330K) was amplified from pPfSTART1-HA-2A-Neo-glmS with the same 5’ BglII primer and a new 3’ primer that replaced with PstI with SpeI and introduced a stop codon. The PCR product was then digested with BglII and SpeI and inserted into similarly digested p1.2 parasite vector2. The p1.2 vector had previously been inserted with a homology region amplified from the 3’ end of the pfstart1 gene (3’HB) to form a second homology block for double recombination. The primers used to amplify 3’HB are listed primers listed in […]
(§4) 60 μg of p1.2-PfSTART1(WT/N309K/N330K) plasmid was linearised with KasI, precipitated in 3 M sodium acetate and ethanol (70% final concentration) overnight at -20°C. The DNA pellet was washed in cold 70% ethanol and resuspended in cytomix 3.
(§5) 50 μ M of crRNA ( Table S 2) and 50 μM of tracRNA (Integrated DNA Technologies) were allowed to form a duplex (5 min at 95°C), and Cas9 enzyme (Integrated DNA Technologies) was added, and incubated for 20 min at room temperature 4. This crRNA -tracRNA -Cas9 mix was added to each DNA preparation and transfected to 3D7 ring parasites using the Bio -Rad Gene Pulser at 310 V and 950 μF.
(§6) Parasites containing the transfected DNA were selected using 2.5 nM WR99210 (Jacobus). Parasites lines were cloned using limiting dilution. Correct integration was tested by PCR (using primer START_5’UTR.F and START_Int.R1 , Table S 2), and sequencing was done using the primers START_3F and START_Int.R2 (Table S 2).
(§7) Growth inhibition assays. Synchronised ring-stage parasites (0.3-0.6% parasitemia, 2% haematocrit) were grown for 72 h in a serial-dilution of the compound under […]
(§8) and compound 4. Note that M-833 was first purchased from MolPort (MolPort -002-267-916) then made in-house at WEHI: the differences observed in EC50s across experiments are attributed to the different batches of M -833. For some experiments, 0, 0.25 or 2.5 mM of glucosamine (GlcN) was also added. Experiments were set up in technical duplicates or triplicates. Following a freeze -thaw cycle, lactate dehydrogenase (LDH) activity was assessed as an indicator of parasite growt h 5. 30 μL of parasite culture was incubated for 30 min in the dark with 75 μL Malstat mixture (0.1 M Tris pH 9.0, 20 g/L lactic acid, pH 7.5, 0.2% Triton-X100, 0.5 g/L acetylpyridine adenine dinucleotide (APAD, Sigma), 200 μg/mL nitroblue tetrazolium (NBT; Sigma), 1 μg/mL phenozine ethosulfate (PES; Sigma)). Absorbance was then measured at 650 nm, transformed using the formula below, plotted against the logarithm of the concentrations, and a non-linear regression (log(inhibitor) vs. response, variable slope) was calculated using GraphPad Prism to assess the half-inhibitory […]
(§9) Growth inhibition % = (1 − average(sample)− average(uRBC)) ∗ 100 […]
(§10) The DMSO samples were also used to assess growth of parasite in the presence of 0.25 and 2.5 mM GlcN (normalised by DMSO in 0 mM GlcN).
(§11) Egress, invasion & recovery assay. To measure egress, invasion and follow up recovery in the presence of different compounds, we adapted the method developed in6, using Hyp1-Nluc parasites7. These parasites episomally express the exported PEXEL protein Hyp1 (PF3D7_0113300) tagged with a NanoLuc luciferase (NLuc) and were selected with 2.5 nM WR99210 (Jacobus). Highly synchronised schizonts were obtained using ML10 (LifeArc) and sorbitol synchronisation, and Percoll-purified (the culture was gently layered over 67% Percoll (Cytiva) in RPMI, and centrifuged for 15 min at 1500 g and the schizont layer was collected and washed). In a 96-well plate, […]

CR-N330K parasites = experiment: Growth inhibition assay (72 h, LDH activity); assay type: cell-based, Plasmodium falciparum; details: for inhibition at 40 µM / inhibition at 0.00203221 µM / inhibition at 0.00609663 µM / inhibition at 0.0182899 µM / inhibition at 0.0548697 µM / inhibition at 0.164609 µM / inhibition at 0.493827 µM / inhibition at 1.48148 µM / inhibition at 4.44444 µM / inhibition at 13.3333 µM / EC50: Plasmodium falciparum; for inhibition at 40 µM / inhibition at 0.00203221 µM / inhibition at 0.00609663 µM / inhibition at 0.0182899 µM / inhibition at 0.0548697 µM / inhibition at 0.164609 µM / inhibition at 0.493827 µM / inhibition at 1.48148 µM / inhibition at 4.44444 µM / inhibition at 13.3333 µM: read-out: Growth inhibition assay, NORMALISED; for inhibition at 0.00203221 µM: conc 2.03221 nM; for inhibition at 0.00609663 µM: conc 6.09663 nM; for inhibition at 0.0182899 µM: conc 18.2899 nM; for inhibition at 0.0548697 µM: conc 54.8697 nM; for inhibition at 0.164609 µM: conc 164.609 nM; for inhibition at 0.493827 µM: conc 493.827 nM; for inhibition at 1.48148 µM: conc 1481.48 nM; for inhibition at 4.44444 µM: conc 4444.44 nM
Experimental: as §1, §2, §3, §4, §5, §6, §7, §8, §9, §10, §11

[1] = 0.25 mM GlcN, M833 dilution point 1 of 10 (starting concentration 40 uM)
[2] = 2.5 mM GlcN, M833 dilution point 1 of 10 (starting concentration 40 uM)
[3] = 2.5 mM GlcN, M833 dilution point 2 of 10 from 40 uM start
[4] = 2.5 mM GlcN, M833 dilution point 3 of 10 from 40 uM start

SMILES: Cc1cc(Cl)c(S(=O)(=O)N2CCCC2)cc1OCC(=O)NC1CCCCC1 [M-833]
- Growth inhibition assay, NORMALISED (CR-N309K parasites; 0 mM GlcN, conc 13333.3 nM): 96.3035 and 81.5013
- Growth inhibition assay, NORMALISED (CR-N309K parasites; 0 mM GlcN, conc 40000 nM): 90.3753
- NORMALISED (growth inhibition, LDH absorbance vs DMSO and uRBC) (CR-N309K parasites; [1]): 109.622 and 93.8958 and 89.0356
- NORMALISED (growth inhibition, LDH absorbance vs DMSO and uRBC) (CR-N309K parasites; 0.25 mM GlcN, M833 dilution point 2 of 10 from 40 uM start): 100.45 and 85.8318 and 85.1660
- NORMALISED (growth inhibition, LDH absorbance vs DMSO and uRBC) (CR-N309K parasites; 0.25 mM GlcN, M833 dilution point 3 of 10 from 40 uM start): 91.9964 and 60.0606 and 52.4793
- NORMALISED (growth inhibition, LDH absorbance vs DMSO and uRBC) (CR-N309K parasites; [2]): 151.073 and 87.1969 and 79.8969
- NORMALISED (growth inhibition, LDH absorbance vs DMSO and uRBC) (CR-N309K parasites; [3]): 113.734 and 82.9449 and 82.5963
- NORMALISED (growth inhibition, LDH absorbance vs DMSO and uRBC) (CR-N309K parasites; [4]): 124.034 and 76.1318 and 75.9272
- fold resistance compared to CR-WT (CR-N309K parasites; Fig 2D): over 81 fold
- inhibition at 40 µM (CR-N309K parasites; Plasmodium falciparum, 0 mM GlcN, conc 40000 nM, read-out: Growth inhibition assay, NORMALISED): 107%
- EC50 (CR-N309K parasites; Plasmodium falciparum, 72 h, read-out: EC50 (95% confidence interval), Fig 2D, 72 h, n = 3): 4.03 µM
- EC50 (CR-N309K parasites; Plasmodium falciparum, Fig 3F, 0 mM GlcN, n = 3, read-out: EC50 M-833 (95% confidence interval)): 4 µM
- EC50 (CR-N309K parasites; Plasmodium falciparum, read-out: EC50 M-833 (95% confidence interval), Fig 3F, 0.25 mM GlcN, n = 3): 2.18 µM
- EC50 (CR-N309K parasites; Plasmodium falciparum, read-out: EC50 M-833 (95% confidence interval), Fig 3F, 2.5 mM GlcN, n = 3): 0.768 µM
- fold reduction of EC50 on addition of 2.5 mM GlcN (CR-N309K parasites; not statistically significant): 5.2 fold
- effect of GlcN addition on EC50 (CR-N330K parasites): did not impact the EC50
- Growth inhibition assay, NORMALISED (CR-N330K parasites; 0 mM GlcN, conc 13333.3 nM): 83.0053 and 71.7328 and 58.9456
- Growth inhibition assay, NORMALISED (CR-N330K parasites; 0 mM GlcN, conc 40000 nM): 89.2357 and 89.8575
- NORMALISED (growth inhibition, LDH absorbance vs DMSO and uRBC) (CR-N330K parasites; [1]): 90.8081 and 87.9797 and 87.1506
- NORMALISED (growth inhibition, LDH absorbance vs DMSO and uRBC) (CR-N330K parasites; [2]): 93.6897 and 84.3760 and 68.7638
- NORMALISED (growth inhibition, LDH absorbance vs DMSO and uRBC) (CR-N330K parasites; [3]): 66.9588 and 63.6686 and 78.5050
- NORMALISED (growth inhibition, LDH absorbance vs DMSO and uRBC) (CR-N330K parasites; [4]): 62.4014 and 35.5339 and 55.9192
- fold resistance compared to CR-WT (CR-N330K parasites; Fig 2D): over 81 fold
- inhibition at 40 µM (CR-N330K parasites; 0 mM GlcN, conc 40000 nM): 98.2%
- inhibition at 0.00203221 µM (CR-N330K parasites; 0.25 mM GlcN): 1.04%
- inhibition at 0.00609663 µM (CR-N330K parasites; 0.25 mM GlcN): 4.9%
- inhibition at 0.0182899 µM (CR-N330K parasites; 0.25 mM GlcN): 1.5%
- inhibition at 0.0548697 µM (CR-N330K parasites; 0.25 mM GlcN): 3.6%
- inhibition at 0.164609 µM (CR-N330K parasites; 0.25 mM GlcN): -2.8%
- inhibition at 0.493827 µM (CR-N330K parasites; 0.25 mM GlcN): 5.89%
- inhibition at 1.48148 µM (CR-N330K parasites; 0.25 mM GlcN): 18.6%
- inhibition at 4.44444 µM (CR-N330K parasites; 0.25 mM GlcN): 54.4%
- inhibition at 13.3333 µM (CR-N330K parasites; 0.25 mM GlcN, conc 13333.3 nM): 83.8%
- inhibition at 40 µM (CR-N330K parasites; 0.25 mM GlcN, conc 40000 nM): 98.3%
- inhibition at 0.00203221 µM (CR-N330K parasites; 2.5 mM GlcN): -48.3%
- inhibition at 0.00609663 µM (CR-N330K parasites; 2.5 mM GlcN): -31%
- inhibition at 0.0182899 µM (CR-N330K parasites; 2.5 mM GlcN): -30.8%
- inhibition at 0.0548697 µM (CR-N330K parasites; 2.5 mM GlcN): -27.3%
- inhibition at 0.164609 µM (CR-N330K parasites; 2.5 mM GlcN): -23.4%
- inhibition at 0.493827 µM (CR-N330K parasites; 2.5 mM GlcN): -11.7%
- inhibition at 1.48148 µM (CR-N330K parasites; 2.5 mM GlcN): 13.1%
- inhibition at 4.44444 µM (CR-N330K parasites; 2.5 mM GlcN): 36.6%
- inhibition at 13.3333 µM (CR-N330K parasites; 2.5 mM GlcN, conc 13333.3 nM): 32.3%
- inhibition at 40 µM (CR-N330K parasites; 2.5 mM GlcN, conc 40000 nM): 94%
- EC50 (CR-N330K parasites; 72 h, read-out: EC50 (95% confidence interval), Fig 2D, 72 h, n = 3): 9.51 µM
- EC50 (CR-N330K parasites; Fig 3F, 0 mM GlcN, n = 3, read-out: EC50 M-833 (95% confidence interval)): 9.5 µM
- EC50 (CR-N330K parasites; read-out: EC50 M-833 (95% confidence interval), Fig 3F, 0.25 mM GlcN, n = 3): 8.92 µM
- EC50 (CR-N330K parasites; read-out: EC50 M-833 (95% confidence interval), Fig 3F, 2.5 mM GlcN, n = 3): 8.73 µM
